Data reported in ChEMBL document CHEMBL1201862, “PubChem BioAssay data set” (2004).
Calls of active or inactive are those of the source.

Assays:
Bcl-2-related protein A1 = target: T1, Bcl-2-related protein A1 (Mus musculus, UniProt Q07440); assay type: functional;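 note: confirmatory dose–response counterscreen on Bfl-1, used to check hits from a UBC13 polyubiquitin inhibitor campaign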
T1 sequence (Q07440 whole entry): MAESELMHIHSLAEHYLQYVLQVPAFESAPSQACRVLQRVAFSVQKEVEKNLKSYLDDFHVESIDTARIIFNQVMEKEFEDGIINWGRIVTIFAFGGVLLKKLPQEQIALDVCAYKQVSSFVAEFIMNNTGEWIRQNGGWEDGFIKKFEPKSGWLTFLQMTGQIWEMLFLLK

[1] = target: T2, Zinc finger protein mex-5 (Caenorhabditis elegans, UniProt Q9XUB2); assay: MEX-5/TCR-2 RNA interaction inhibitors, dose response, biochemical, C. elegans, fluorescence polarization (AID 1960)
T2 sequence (Q9XUB2 whole entry): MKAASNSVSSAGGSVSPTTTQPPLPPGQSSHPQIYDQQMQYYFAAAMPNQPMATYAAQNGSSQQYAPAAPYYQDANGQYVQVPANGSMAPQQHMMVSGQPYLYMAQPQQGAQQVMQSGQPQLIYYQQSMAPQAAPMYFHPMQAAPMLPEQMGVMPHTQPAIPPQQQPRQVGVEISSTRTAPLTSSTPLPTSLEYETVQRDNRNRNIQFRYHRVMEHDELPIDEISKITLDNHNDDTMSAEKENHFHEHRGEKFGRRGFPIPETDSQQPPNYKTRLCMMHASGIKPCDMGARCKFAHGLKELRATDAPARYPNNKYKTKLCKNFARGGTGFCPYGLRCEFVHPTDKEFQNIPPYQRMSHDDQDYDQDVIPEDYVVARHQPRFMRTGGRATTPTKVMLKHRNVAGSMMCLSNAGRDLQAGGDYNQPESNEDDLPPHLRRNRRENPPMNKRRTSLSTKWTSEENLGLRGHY

SUMO-activating enzyme = SUMO-activating enzyme (Homo sapiens, UniProt Q9UBT2); assay: inhibitors of in vitro SUMOylation cascade, primary screen, biochemical, HTRF, uHTS (AID 2006); assay type: protein-complex assay
[2] = target: Intestinal-type alkaline phosphatase (Homo sapiens, UniProt P09923); assay: human intestinal alkaline phosphatase activators, dose response, biochemical, luminescence, uHTS hits (AID 463120); assay type: functional
Prothrombin = Prothrombin (Bos taurus, UniProt P00735); assay: thrombin inhibition, dose response, biochemical, fluorescence polarization, uHTS hits (AID 602369); assay type: functional
[3] = target: Mitogen-activated protein kinase 14 (Homo sapiens, UniProt Q16539); assay type: functional;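 note: part of a kinome-wide panel, MAPK14 entry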
[4] = target: Serine/threonine-protein kinase 17A (Homo sapiens, UniProt Q9UEE5); assay type: functional
[5] = target: Maternal embryonic leucine zipper kinase (Homo sapiens, UniProt Q14680); assay type: functional
Hexokinase HKDC1 = target: T3, Hexokinase HKDC1 (Homo sapiens, UniProt Q2TB90); assay: HKDC1 hexokinase activators, dose response, biochemical, W721R variant (AID 504730); assay type: functional
T3 sequence (Q2TB90 whole entry): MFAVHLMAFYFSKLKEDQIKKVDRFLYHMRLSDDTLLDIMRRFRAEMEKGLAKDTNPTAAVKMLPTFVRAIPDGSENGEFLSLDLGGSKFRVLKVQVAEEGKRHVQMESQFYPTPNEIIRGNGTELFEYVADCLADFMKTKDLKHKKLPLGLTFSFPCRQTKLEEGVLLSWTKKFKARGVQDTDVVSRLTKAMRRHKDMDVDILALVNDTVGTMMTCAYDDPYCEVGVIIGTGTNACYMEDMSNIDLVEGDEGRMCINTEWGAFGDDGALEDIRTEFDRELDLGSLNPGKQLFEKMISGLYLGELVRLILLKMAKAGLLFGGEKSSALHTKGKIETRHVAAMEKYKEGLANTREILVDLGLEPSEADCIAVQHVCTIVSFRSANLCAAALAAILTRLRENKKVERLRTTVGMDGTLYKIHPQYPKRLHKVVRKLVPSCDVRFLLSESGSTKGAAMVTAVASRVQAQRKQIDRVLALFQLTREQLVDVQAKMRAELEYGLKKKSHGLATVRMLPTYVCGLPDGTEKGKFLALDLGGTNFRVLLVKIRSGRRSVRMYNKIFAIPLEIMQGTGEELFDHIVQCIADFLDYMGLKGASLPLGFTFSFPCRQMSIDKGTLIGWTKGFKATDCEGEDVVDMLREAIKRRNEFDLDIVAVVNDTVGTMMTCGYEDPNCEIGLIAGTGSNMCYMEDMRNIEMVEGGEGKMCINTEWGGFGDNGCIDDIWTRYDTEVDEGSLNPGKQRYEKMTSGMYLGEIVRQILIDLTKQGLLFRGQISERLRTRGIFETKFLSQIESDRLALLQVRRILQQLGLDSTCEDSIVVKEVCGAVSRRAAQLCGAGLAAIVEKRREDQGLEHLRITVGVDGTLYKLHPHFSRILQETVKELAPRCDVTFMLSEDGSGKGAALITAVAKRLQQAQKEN

[6] = target: T4, Serine/threonine-protein phosphatase (Candida dubliniensis (strain CD36 / CBS 7987 / NCPF 3949 / NRRLY-17841) (Yeast), UniProt B9W6M3); assay: calcineurin pathway inhibitors in yeast reporter, dose response, S. cerevisiae, CDRE-lacZ, luminescence, secondary (AID 2388); assay type: functional, cell-based;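 note: yeast reporter cells carrying a calcineurin-responsive lacZ construct stimulated with calcium chloride; luminescent beta-galactosidase reporter signal in whole cells rather than isolated phosphatase activity; potency for inhibition where a drop in reporter signal means calcineurin blockade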
T4 sequence (B9W6M3 whole entry): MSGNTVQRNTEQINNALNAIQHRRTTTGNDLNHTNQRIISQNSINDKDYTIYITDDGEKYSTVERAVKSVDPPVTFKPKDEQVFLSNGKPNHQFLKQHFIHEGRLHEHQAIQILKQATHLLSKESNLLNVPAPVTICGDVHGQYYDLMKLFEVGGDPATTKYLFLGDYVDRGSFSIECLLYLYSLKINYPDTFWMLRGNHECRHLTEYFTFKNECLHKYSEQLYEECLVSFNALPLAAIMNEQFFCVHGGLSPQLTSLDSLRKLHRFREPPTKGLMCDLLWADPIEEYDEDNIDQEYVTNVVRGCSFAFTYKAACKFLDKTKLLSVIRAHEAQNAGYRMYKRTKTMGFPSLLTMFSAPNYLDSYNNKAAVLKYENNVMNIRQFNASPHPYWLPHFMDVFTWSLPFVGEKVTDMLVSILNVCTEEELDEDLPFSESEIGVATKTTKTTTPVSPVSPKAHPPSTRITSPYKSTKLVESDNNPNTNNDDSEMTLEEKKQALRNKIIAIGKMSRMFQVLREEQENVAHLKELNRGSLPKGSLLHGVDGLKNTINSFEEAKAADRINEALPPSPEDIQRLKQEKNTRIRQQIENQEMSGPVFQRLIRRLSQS

[7] = target: ATP-dependent molecular chaperone HSP82 (Candida albicans (strain WO-1) (Yeast), UniProt C4YTQ8); assay: loss of DOC-induced GRE-beta-galactosidase reporter signal, dose response, Hsp90 inhibitor project, S. cerevisiae, luminescence (AID 2400); assay type: functional, cell-based;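 note: beta-galactosidase luminescence from glucocorticoid response element reporter as proxy for Hsp90 function; inhibitor potency where signal loss means Hsp90 inhibition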
Sequence of ATP-dependent molecular chaperone HSP82 (C4YTQ8 whole entry): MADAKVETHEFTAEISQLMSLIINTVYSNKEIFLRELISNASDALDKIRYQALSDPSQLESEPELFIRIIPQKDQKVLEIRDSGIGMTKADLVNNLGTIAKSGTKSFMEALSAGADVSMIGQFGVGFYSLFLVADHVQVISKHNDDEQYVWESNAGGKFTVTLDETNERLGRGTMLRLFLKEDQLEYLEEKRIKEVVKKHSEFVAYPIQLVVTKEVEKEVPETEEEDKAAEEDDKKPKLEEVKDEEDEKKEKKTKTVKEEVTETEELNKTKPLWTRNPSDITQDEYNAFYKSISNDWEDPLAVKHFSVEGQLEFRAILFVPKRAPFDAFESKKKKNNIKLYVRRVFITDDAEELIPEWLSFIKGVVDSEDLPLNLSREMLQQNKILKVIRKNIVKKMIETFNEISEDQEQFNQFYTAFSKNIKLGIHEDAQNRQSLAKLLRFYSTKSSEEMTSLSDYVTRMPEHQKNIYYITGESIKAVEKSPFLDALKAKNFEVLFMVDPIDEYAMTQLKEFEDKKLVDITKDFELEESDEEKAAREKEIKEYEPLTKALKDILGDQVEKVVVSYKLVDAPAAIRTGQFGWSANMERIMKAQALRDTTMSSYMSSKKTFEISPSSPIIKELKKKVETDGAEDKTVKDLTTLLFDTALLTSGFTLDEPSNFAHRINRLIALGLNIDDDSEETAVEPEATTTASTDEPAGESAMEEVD

Sequence of Serine/threonine-protein kinase 17A (Q9UEE5 whole entry): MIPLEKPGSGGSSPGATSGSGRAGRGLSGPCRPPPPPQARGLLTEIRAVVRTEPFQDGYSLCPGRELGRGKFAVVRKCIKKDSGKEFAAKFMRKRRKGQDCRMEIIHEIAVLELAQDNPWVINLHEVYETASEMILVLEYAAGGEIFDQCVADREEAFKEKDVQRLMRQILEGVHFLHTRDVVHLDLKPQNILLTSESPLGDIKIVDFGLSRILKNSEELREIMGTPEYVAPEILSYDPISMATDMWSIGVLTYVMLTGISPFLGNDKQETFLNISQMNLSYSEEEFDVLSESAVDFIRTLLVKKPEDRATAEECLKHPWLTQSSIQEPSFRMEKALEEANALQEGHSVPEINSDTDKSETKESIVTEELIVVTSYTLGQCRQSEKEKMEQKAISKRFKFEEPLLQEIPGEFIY
Sequence of Maternal embryonic leucine zipper kinase (Q14680 whole entry): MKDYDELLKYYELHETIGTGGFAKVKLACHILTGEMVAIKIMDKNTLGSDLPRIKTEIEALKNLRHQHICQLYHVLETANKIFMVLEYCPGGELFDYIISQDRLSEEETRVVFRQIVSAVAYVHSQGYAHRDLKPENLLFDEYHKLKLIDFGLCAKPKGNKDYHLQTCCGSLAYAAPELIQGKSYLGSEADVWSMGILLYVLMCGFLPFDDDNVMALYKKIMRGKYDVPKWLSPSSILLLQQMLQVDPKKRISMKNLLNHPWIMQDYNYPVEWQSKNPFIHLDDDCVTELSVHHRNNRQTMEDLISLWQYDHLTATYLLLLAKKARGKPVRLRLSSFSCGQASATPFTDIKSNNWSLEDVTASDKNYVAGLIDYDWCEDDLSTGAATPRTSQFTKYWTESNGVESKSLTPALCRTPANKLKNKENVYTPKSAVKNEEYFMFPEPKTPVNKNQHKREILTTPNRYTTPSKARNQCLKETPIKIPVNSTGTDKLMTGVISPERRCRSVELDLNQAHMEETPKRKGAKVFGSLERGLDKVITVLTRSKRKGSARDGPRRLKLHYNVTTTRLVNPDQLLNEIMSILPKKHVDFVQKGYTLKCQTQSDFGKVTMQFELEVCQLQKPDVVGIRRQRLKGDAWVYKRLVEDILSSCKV
Sequence of Mitogen-activated protein kinase 14 (Q16539 whole entry): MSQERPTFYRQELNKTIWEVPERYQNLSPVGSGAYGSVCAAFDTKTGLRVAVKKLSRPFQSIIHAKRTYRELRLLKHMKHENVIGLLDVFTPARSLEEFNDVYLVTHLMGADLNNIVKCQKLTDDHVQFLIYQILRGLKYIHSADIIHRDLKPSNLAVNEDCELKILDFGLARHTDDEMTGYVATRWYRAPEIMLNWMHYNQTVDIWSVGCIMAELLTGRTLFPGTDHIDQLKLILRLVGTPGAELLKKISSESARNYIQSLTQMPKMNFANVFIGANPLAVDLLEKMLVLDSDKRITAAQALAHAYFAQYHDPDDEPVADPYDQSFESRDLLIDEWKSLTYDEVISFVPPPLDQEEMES
Sequence of SUMO-activating enzyme (Q9UBE0 whole entry): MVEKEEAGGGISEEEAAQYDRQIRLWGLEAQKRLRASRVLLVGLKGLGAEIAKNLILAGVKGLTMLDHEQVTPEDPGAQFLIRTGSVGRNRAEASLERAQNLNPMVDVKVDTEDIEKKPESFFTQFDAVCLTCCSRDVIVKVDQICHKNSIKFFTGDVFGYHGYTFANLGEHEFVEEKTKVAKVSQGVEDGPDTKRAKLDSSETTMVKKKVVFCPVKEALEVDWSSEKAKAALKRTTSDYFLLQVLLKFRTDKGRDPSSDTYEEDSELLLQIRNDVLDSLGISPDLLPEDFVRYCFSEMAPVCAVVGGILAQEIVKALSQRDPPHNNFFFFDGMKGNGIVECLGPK
Sequence of SUMO-activating enzyme (Q9UBT2 whole entry): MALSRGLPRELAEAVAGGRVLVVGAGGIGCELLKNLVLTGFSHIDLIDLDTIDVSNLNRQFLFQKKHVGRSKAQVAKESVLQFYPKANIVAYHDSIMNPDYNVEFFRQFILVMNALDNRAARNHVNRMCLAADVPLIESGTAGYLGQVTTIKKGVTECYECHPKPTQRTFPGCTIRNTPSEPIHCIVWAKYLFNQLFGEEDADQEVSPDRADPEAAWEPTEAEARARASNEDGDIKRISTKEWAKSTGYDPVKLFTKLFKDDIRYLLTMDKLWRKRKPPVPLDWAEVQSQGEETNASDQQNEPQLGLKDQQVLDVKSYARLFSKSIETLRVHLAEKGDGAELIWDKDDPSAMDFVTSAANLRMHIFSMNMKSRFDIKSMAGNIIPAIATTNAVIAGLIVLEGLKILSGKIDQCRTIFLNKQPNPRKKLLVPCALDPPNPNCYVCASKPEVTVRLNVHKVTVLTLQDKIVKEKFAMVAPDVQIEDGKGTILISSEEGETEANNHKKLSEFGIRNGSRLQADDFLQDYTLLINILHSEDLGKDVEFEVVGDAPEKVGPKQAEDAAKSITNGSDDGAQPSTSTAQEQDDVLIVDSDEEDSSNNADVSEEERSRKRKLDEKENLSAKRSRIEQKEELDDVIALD
Sequence of Intestinal-type alkaline phosphatase (P09923 whole entry): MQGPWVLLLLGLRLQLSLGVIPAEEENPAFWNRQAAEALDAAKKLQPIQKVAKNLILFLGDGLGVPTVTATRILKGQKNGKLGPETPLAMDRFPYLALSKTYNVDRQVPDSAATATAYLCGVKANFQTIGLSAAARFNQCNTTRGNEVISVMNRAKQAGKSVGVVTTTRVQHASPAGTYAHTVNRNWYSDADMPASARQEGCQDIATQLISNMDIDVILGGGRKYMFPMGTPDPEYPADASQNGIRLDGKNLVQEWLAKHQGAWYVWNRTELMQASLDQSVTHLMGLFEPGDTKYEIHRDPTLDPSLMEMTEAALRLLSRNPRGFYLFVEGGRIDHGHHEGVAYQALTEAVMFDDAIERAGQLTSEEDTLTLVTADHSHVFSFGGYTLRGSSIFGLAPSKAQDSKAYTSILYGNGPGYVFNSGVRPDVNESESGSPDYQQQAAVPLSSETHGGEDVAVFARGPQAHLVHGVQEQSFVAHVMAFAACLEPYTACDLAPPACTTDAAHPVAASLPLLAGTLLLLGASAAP

`CNC[C@H](Cc1ccccc1)NC[C@@H](Cc1cccc2ccccc12)NCCc1ccc(C)cc1` was tested, and the IC50 (Bcl-2-related protein A1) was > 20 µM (inactive).
`Nc1nnc2c(n1)CCCC2` was tested, and the EC50 [1] was 59.3 µM (active).
`O=C(Cc1ccccc1Cl)NC1(O)C(=O)c2ccccc2C1=O` was tested, and the IC50 (SUMO-activating enzyme) was 26 µM (active).
With `O=C(N/N=C/c1c(O)ccc2ccccc12)c1[nH]ncc1Br` the EC50 [2] was 7.56 µM (active) and the IC50 (Prothrombin) was 91.6 µM (active).
With `Nc1c(-c2ccc(NC(=O)Nc3cccc(C(F)(F)F)c3)cc2)cnc2c(-c3ccc4c(c3)OCO4)cnn12` the Ki [3] was > 3.98 µM (inactive).
In the case of `O=C(Nc1cc(-c2c[nH]c3ncccc23)cc(Cl)n1)c1ccccc1`, the Ki [4] is reported as 1.58 µM (active) and the Ki [5] is reported as 0.0316 µM (active).
In the case of `CCN1C(=Cc2sc3ccccc3[n+]2C)C=Cc2cccc(C)c21`, the EC50 (Hexokinase HKDC1) is reported as > 80 µM (inactive), the EC50 [6] is reported as > 180 µM (inactive) and the EC50 [7] is reported as 37.3 µM (active).
